Experimental data: article PMC11811690 (Angewandte Chemie (International Ed. in English), 2024)
Converted amounts (≈) assume the structure as drawn. Read-outs that look alike come from different tables or passages of the source.

How the values were obtained:
[1] = tested on: M. tuberculosis H37Rv poly-g-GFP; experiment: microbe, parasite or virus in culture; assay type: cell-based; settings: Mycobacterium tuberculosis, H37RV, 240 h; concentration for 90 % inhibition of fluorescence as proxy for growth inhibition, 10 days, 37 °C; read-out: IC90 Mtb H37Rv-poly-g-GFP, fluorescence read-out
C. difficile 630 = experiment: microbe, parasite or virus in culture; assay type: cell-based, Clostridioides difficile
[2] = tested on: M. tuberculosis H37Rv poly-g-GFP; experiment: microbe, parasite or virus in culture; assay type: cell-based; settings: Mycobacterium tuberculosis, 336 h, 14 days, 37 °C, turbidity by eye, read-out: MIC Mtb H37Rv-poly-g-GFP, turbidity read-out
[3] = tested on: C. crescentus pfhuA_ΔacrAB-nodT; assay type: cell-based; settings: disk diffusion, 20 µg per disk, 24 h, 30 °C; permeable and efflux-deficient strain
M. tuberculosis RNAP = biological target: T1, M. tuberculosis RNAP (Mycobacterium tuberculosis, UniProt P9WGY7+P9WGY9); experiment: biochemical; settings: fluorescent run-off transcription assay, triplicate, mean ± s.d.; read-out: IC50 Mtb RNAP, fluorescence read-out
T1 construct: made in house; host or cells: E. coli BL21(DE3) is stated for σA only
T1 sequence (P9WGY9 whole entry): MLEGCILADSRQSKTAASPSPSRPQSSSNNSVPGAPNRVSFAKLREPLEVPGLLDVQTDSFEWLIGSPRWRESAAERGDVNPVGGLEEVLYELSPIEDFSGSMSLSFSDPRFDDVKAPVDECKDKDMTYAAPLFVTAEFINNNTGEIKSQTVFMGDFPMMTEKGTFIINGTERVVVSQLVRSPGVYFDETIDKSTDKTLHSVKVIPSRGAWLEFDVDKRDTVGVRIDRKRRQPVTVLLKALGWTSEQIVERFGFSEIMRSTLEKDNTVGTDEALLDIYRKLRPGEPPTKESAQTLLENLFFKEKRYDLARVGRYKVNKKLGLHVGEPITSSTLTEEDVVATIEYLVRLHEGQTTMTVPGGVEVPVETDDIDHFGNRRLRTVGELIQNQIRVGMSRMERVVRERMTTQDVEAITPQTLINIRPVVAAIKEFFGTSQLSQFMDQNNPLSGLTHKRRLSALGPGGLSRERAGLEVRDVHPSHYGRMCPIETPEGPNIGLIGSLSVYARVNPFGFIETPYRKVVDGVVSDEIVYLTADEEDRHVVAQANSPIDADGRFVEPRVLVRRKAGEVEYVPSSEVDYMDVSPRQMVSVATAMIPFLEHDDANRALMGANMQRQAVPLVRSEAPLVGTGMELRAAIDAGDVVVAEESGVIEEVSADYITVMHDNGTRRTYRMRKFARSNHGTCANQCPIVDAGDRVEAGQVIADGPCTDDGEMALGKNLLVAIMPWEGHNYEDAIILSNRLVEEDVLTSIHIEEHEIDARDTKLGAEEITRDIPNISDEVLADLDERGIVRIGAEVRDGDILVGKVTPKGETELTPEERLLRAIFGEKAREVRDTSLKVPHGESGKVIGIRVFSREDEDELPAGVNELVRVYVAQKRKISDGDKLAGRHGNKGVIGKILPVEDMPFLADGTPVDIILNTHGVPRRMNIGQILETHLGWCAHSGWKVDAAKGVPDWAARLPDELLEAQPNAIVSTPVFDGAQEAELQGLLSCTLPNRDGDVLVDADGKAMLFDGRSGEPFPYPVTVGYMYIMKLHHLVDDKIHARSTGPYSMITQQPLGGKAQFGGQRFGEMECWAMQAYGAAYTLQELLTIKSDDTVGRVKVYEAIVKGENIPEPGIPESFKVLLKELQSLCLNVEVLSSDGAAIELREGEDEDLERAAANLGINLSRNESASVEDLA
T1 sequence (P9WGY5 whole entry, further chain): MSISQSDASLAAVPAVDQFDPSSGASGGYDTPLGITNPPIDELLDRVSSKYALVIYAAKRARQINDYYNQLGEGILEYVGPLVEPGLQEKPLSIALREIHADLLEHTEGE
T1 sequence (P9WGZ1 whole entry, further chain): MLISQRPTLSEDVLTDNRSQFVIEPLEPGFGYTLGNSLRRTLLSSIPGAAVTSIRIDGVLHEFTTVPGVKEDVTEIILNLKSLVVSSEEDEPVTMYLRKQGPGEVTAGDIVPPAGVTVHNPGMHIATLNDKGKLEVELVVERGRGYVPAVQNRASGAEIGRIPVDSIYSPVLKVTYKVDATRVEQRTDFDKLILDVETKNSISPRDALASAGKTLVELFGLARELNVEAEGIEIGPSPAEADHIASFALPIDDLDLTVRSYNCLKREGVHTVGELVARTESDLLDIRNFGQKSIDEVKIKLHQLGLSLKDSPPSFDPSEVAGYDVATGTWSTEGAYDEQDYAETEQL
T1 sequence (P9WHJ5 whole entry, further chain): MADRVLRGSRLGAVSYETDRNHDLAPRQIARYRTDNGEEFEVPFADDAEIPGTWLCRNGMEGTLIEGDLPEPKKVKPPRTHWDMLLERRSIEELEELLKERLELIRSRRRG
T1 sequence (P9WGY7 whole entry): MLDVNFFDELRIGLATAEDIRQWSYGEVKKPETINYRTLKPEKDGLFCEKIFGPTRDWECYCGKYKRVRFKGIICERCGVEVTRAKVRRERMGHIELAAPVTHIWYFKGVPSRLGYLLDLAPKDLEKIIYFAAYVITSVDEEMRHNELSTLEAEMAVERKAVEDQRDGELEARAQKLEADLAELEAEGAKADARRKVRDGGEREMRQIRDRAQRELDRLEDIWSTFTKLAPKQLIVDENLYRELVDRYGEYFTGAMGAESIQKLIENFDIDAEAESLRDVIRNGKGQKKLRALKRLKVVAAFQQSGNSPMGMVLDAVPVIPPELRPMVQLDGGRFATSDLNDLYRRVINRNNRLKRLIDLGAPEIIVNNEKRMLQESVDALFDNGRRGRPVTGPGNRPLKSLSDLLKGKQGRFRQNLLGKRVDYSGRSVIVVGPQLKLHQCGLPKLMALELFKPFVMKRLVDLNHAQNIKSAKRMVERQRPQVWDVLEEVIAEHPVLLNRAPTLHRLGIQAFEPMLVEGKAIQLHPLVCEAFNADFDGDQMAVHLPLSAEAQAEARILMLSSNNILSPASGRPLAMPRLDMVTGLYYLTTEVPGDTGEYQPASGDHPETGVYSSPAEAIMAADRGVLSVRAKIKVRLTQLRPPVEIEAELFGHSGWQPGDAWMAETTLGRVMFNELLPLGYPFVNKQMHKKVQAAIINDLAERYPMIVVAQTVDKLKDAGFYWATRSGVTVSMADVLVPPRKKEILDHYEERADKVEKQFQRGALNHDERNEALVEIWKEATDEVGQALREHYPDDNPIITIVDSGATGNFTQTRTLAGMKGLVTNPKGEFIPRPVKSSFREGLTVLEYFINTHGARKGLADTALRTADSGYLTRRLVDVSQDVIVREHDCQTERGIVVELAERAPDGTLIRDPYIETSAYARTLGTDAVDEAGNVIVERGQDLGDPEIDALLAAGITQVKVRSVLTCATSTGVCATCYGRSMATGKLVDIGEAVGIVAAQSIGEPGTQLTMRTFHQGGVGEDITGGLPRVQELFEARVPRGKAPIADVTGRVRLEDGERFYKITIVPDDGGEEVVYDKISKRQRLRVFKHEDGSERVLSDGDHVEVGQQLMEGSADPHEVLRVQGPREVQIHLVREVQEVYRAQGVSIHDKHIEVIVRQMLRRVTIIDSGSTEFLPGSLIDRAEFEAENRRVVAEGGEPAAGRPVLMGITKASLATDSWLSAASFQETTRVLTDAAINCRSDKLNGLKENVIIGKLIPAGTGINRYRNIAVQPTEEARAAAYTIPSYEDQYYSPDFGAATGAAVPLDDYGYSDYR
T1 sequence (P9WGI1 whole entry, further chain): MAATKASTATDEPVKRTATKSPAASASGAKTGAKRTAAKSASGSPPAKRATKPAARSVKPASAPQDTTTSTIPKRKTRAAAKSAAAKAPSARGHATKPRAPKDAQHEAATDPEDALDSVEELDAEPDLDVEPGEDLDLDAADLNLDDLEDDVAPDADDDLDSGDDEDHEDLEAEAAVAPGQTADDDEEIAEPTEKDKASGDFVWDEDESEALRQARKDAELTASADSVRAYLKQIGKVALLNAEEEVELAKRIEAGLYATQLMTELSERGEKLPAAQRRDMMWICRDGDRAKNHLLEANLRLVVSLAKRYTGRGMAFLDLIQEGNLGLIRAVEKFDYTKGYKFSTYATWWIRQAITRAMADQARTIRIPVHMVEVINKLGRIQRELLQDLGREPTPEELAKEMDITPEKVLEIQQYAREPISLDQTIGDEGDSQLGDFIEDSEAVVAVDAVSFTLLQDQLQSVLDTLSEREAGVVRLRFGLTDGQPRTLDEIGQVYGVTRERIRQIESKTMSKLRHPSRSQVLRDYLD

[4] = Clostridioides difficile, C. difficile 630, anaerobic, overnight, growth suppressed to OD600 < 0.15, read-out: MIC C. difficile

CC[C@H]1/C=C(\C)[C@@H](O)C/C=C/C=C(\CNc2ccc(C#N)cn2)C(=O)O[C@H]([C@@H](C)O)C/C=C(C)/C=C(\C)[C@@H]1O[C@@H]1OC(C)(C)[C@@H](OC(=O)C(C)C)[C@H](O)[C@@H]1O [compound 25]
IC90 [1]: 16 µg/mL (≈ 20.9 µM) | MIC C. difficile (C. difficile 630; C. difficile 630, anaerobic, overnight, growth suppressed to OD600 < 0.15): 1 µg/mL (≈ 1.31 µM) | MIC [2]: 8 µg/mL (≈ 10.4 µM)

CC[C@H]1/C=C(\C)[C@@H](O)C/C=C/C=C(\CNc2cccc(CN)c2)C(=O)O[C@H]([C@@H](C)O)C/C=C(C)/C=C(\C)[C@@H]1O[C@@H]1OC(C)(C)[C@@H](OC(=O)C(C)C)[C@H](O)[C@@H]1O [compound 27]
Inhibition zone C. crescentus pfuhAh_∆acrABnodT [3]: 119 ± 15 mm2 | IC90 [1]: 32 µg/mL (≈ 41.6 µM) | MIC (C. difficile 630; [4]): > 32 µg/mL | IC50 (M. tuberculosis RNAP): > 100000 nM

CC[C@H]1/C=C(\C)[C@@H](O)C/C=C/C=C(\CNc2cccc(CNC(=O)CCC(=O)O)c2)C(=O)O[C@H]([C@@H](C)O)C/C=C(C)/C=C(\C)[C@@H]1O[C@@H]1OC(C)(C)[C@@H](OC(=O)C(C)C)[C@H](O)[C@@H]1O [compound 28]
IC90 [1]: > 64 µg/mL | MIC (C. difficile 630; [4]): 32 µg/mL (≈ 36.8 µM)

CC[C@H]1/C=C(\C)[C@@H](O)C/C=C/C=C(\CNc2cccc(CNC(=O)Cc3nnn[nH]3)c2)C(=O)O[C@H]([C@@H](C)O)C/C=C(C)/C=C(\C)[C@@H]1O[C@@H]1OC(C)(C)[C@@H](OC(=O)C(C)C)[C@H](O)[C@@H]1O [compound 29]
IC90 [1]: 64 µg/mL (≈ 72.8 µM) | MIC (C. difficile 630; [4]): > 32 µg/mL

CC[C@H]1/C=C(\C)[C@@H](O)C/C=C/C=C(\CNc2cccc(CNC(=O)c3ccc(OC)c(OC)c3Cl)c2)C(=O)O[C@H]([C@@H](C)O)C/C=C(C)/C=C(\C)[C@@H]1O[C@@H]1OC(C)(C)[C@@H](OC(=O)C(C)C)[C@H](O)[C@@H]1O [compound 30]
IC90 [1]: 16 µg/mL (≈ 16.5 µM) | MIC (C. difficile 630; [4]): > 32 µg/mL | IC50 (M. tuberculosis RNAP): 620 ± 290 nM

CC[C@H]1/C=C(\C)[C@@H](O)C/C=C/C=C(\CNc2cccc(CNC(=O)c3ccc(O)c(O)c3Cl)c2)C(=O)O[C@H]([C@@H](C)O)C/C=C(C)/C=C(\C)[C@@H]1O[C@@H]1OC(C)(C)[C@@H](OC(=O)C(C)C)[C@H](O)[C@@H]1O [compound 31]
IC90 [1]: > 64 µg/mL | MIC (C. difficile 630; [4]): 32 µg/mL (≈ 34.1 µM)

CC[C@H]1/C=C(\C)[C@@H](O)C/C=C/C=C(\CNc2nc(-c3cccc(O)c3)cs2)C(=O)O[C@H]([C@@H](C)O)C/C=C(C)/C=C(\C)[C@@H]1O[C@@H]1OC(C)(C)[C@@H](OC(=O)C(C)C)[C@H](O)[C@@H]1O [compound 32]
IC90 [1]: 4 to 8 µg/mL (≈ 4.77 to 9.53 µM) | MIC (C. difficile 630; [4]): 8 µg/mL (≈ 9.53 µM)

CC[C@H]1/C=C(\C)[C@@H](O)C/C=C/C=C(\CNc2nc(-c3cccc(OS(=O)(=O)F)c3)cs2)C(=O)O[C@H]([C@@H](C)O)C/C=C(C)/C=C(\C)[C@@H]1O[C@@H]1OC(C)(C)[C@@H](OC(=O)C(C)C)[C@H](O)[C@@H]1O [compound 33]
IC90 [1]: 8 to 16 µg/mL (≈ 8.69 to 17.4 µM) | MIC (C. difficile 630; Clostridioides difficile, 630, read-out: MIC C. difficile): > 32 µg/mL

CC[C@H]1/C=C(\C)[C@@H](O)C/C=C/C=C(\CNc2nc(-c3cccc(OS(=O)(=O)NC)c3)cs2)C(=O)O[C@H]([C@@H](C)O)C/C=C(C)/C=C(\C)[C@@H]1O[C@@H]1OC(C)(C)[C@@H](OC(=O)C(C)C)[C@H](O)[C@@H]1O [compound 34]
IC90 [1]: 8 µg/mL (≈ 8.58 µM) | MIC (C. difficile 630; [4]): 1 µg/mL (≈ 1.07 µM)

CC[C@H]1/C=C(\C)[C@@H](O)C/C=C/C=C(\CNc2nc(-c3cccc(OS(=O)(=O)N(C)C)c3)cs2)C(=O)O[C@H]([C@@H](C)O)C/C=C(C)/C=C(\C)[C@@H]1O[C@@H]1OC(C)(C)[C@@H](OC(=O)C(C)C)[C@H](O)[C@@H]1O [compound 35]
IC90 [1]: 8 µg/mL (≈ 8.45 µM) | MIC (C. difficile 630; [4]): > 32 µg/mL

CC[C@H]1/C=C(\C)[C@@H](O)C/C=C/C=C(\CNc2nc(-c3cccc(OS(=O)(=O)N4CCCC4)c3)cs2)C(=O)O[C@H]([C@@H](C)O)C/C=C(C)/C=C(\C)[C@@H]1O[C@@H]1OC(C)(C)[C@@H](OC(=O)C(C)C)[C@H](O)[C@@H]1O [compound 36]
IC90 [1]: 8 µg/mL (≈ 8.23 µM) | MIC (C. difficile 630; [4]): > 32 µg/mL

CC[C@H]1/C=C(\C)[C@@H](O)C/C=C/C=C(\CNc2nc(-c3cccc(OS(=O)(=O)NCCOC)c3)cs2)C(=O)O[C@H]([C@@H](C)O)C/C=C(C)/C=C(\C)[C@@H]1O[C@@H]1OC(C)(C)[C@@H](OC(=O)C(C)C)[C@H](O)[C@@H]1O [compound 37]
IC90 [1]: 8 µg/mL (≈ 8.19 µM) | MIC (C. difficile 630; [4]): 2 µg/mL (≈ 2.05 µM)

CC[C@H]1/C=C(\C)[C@@H](O)C/C=C/C=C(\CNc2nc(-c3cccc(OS(=O)(=O)Oc4ccccc4)c3)cs2)C(=O)O[C@H]([C@@H](C)O)C/C=C(C)/C=C(\C)[C@@H]1O[C@@H]1OC(C)(C)[C@@H](OC(=O)C(C)C)[C@H](O)[C@@H]1O [compound 38]
IC90 [1]: > 64 µg/mL | MIC (C. difficile 630; [4]): > 32 µg/mL
